# Results: US10072005B2, “4-azaindole derivatives” (EISAI R&D MANAGEMENT CO., LTD., priority 2013, dated 2018)
# What was measured:
# mAChR M1 = mAChR M1 (Homo sapiens, UniProt P11229); experiment: In vitro cellular calcium flux assay, positive allosteric modulation of mAChR M1; assay type: cell-based; details: BHK cells expressing mAChR M1; EC20 carbachol; Examples 76-80 and 82-89 slightly modified procedure
# How it was run: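 Baby hamster kidney cells stably expressing human mAChR M1, loaded with Calcium 4 dye in HBSS/20 mM HEPES/2.5 mM probenecid for 30 min at 37 °C. An 11-point 1-in-3 compound dilution series was added and calcium rise read as fluorescence; positive allosteric modulator pEC50 and antagonist pIC50 derived.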
# mAChR M3 = mAChR M3 (Homo sapiens (Human), UniProt P20309); experiment: In vitro cellular calcium flux assay, PAM, NAM and agonist modes, mAChR M3; assay type: cell-based
# Sequence of mAChR M3 (P20309 whole entry, looked up): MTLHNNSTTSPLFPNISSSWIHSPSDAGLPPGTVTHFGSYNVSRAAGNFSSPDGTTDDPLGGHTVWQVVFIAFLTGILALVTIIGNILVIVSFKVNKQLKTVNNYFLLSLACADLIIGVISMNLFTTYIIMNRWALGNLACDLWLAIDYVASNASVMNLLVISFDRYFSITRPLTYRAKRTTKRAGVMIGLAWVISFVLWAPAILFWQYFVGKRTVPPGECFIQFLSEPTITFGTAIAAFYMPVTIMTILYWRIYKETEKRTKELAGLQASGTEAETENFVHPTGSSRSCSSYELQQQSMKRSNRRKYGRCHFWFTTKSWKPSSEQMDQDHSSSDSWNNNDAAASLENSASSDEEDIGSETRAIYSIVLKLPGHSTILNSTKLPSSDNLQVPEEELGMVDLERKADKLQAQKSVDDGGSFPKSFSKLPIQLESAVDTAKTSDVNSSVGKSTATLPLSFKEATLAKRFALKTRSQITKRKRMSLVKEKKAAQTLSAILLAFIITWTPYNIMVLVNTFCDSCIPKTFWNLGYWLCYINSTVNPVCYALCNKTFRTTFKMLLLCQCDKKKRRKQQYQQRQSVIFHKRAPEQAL
# Experimental: (§1) Baby hamster kidney cells stably expressing human or rat mAChR M1 to M5 were utilised for primary and selectivity profiling activities. mAChR M2 and M4 cell lines also stably expressed the chimeric Gαqi5 G-protein.
# (§2) Human mAChR M1, M3, M5 and rat M1 cells were grown in low glucose Dulbecco's Modified Eagle's Medium (DMEM) medium plus heat inactivated 10% fetal bovine serum (HI FBS) and 500 μg/ml hygromycin B^1. Human mAChR M2 and M4 cells were maintained as above with^2 the addition of 500 μg/ml G418 to the media. Cells were maintained in culture at 37° C./5% CO2 and passaged twice weekly by treatment with 0.05% Trypsin/EDTA detachment solution, centrifugation (200 g, 5 min) and re-suspension in fresh media. Following cell expansion, cells were cryopreserved at −80° C. by treatment with 0.05% Trypsin/EDTA detachment solution, centrifugation (200 g, 5 min) and re-suspension of the pellet in freezing media (90% HI FBS/10% DMSO^3) at 15E6 cells/ml^4.
# (§3) Prior to assaying, cells were prepared by thawing at 37° C. in a water bath, centrifugation (200 g, 5 min) and re-suspension of the pellet in fresh media. 15000 cells per well were seeded in black, clear bottomed 384-well Greiner Bio-One plates in plating medium (DMEM/10% HI FBS) and incubated overnight at 37 C/5% CO2.
# (§4) On the day of the assay, media was removed from each well and replaced with 50 μl^5 assay buffer (HBSS with 20 mM HEPES and 2.5 mM Probenecid) containing the calcium indicator, Calcium 4 (Molecular Devices). Cells were then incubated at 37° C./5% CO2 for 30 min and at room temperature.
# (§5) Compound preparation was carried out by generation of 11-point, 1 in 3 serial dilution concentration response curves in 100% DMSO. Compound was then diluted 1 in 65^6 with assay buffer (HBSS with 20 mM HEPES and 2.5 mM Probenecid) prior to the addition of 10 ul^7 to the cells using a Tetra fluorometric imaging plate reader (Molecular Devices)^8. Compound driven increases in intracellular calcium flux was measured as an increase in fluorescence (494Ex, 516Em)^9.
# (§6) Positive allosteric modulator pEC50 values and antagonist pIC50 values for each compound were then determined. […] The points of modification and the alternate reagents, concentrations or equipment employed in these examples were: ^1200 μg/ml hygromycin B; ^2G418 not added; ^3CELLBANKER 1; ^410E6; ^5 40 μl; ^6 1 in 99; ^7 20 μl; ^8FDSS6000 (Hamamatsu Photonics); ^9(480Ex, 540Em); ^10Spotfire (TIBCO).
# (§7) Certain compounds were tested in PAM, NAM and agonist modes against mAChR M2, M3, M4 and M5.
# mAChR M5 = mAChR M5 (Homo sapiens (Human), UniProt P08912); experiment: In vitro cellular calcium flux assay, PAM, NAM and agonist modes, mAChR M5; assay type: cell-based
# Sequence of mAChR M5 (P08912 whole entry): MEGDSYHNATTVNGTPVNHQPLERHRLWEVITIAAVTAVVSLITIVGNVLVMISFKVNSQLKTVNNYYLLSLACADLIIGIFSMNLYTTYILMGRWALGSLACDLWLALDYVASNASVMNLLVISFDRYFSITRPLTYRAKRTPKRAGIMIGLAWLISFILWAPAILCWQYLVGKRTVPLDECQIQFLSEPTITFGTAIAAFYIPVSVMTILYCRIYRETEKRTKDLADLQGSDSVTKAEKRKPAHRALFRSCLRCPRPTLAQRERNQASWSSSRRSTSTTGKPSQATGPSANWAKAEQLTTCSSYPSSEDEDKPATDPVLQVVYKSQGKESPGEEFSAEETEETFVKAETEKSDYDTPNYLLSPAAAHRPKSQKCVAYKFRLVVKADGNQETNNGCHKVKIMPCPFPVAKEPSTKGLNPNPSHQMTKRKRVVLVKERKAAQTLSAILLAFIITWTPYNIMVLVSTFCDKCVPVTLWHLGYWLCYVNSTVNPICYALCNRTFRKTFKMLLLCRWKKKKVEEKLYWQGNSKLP
# Experimental: as §1, §2, §3, §4, §5, §6, §7
# male Crlj: WI rats = experiment: Morris Water Maze Test in Ibotenic Acid-Induced Learning Disability Model; assay type: in vivo, rat; details: for Swimming time in 4th quadrant / Frequency of entry into platform area: probe trial
# Experimental: Ibotenic acid at 5 μg/0.5 μL was injected into both basal nuclei of 8-week old male Crlj: WI rats, and a Morris water maze test was performed 10-14 days after ibotenic acid injection. It has been reported that rats in which basal forebrain was lesioned by ibotenic acid injection show learning disability in the Morris water maze test. (Pharmacopsychiat, 1999, 32, 242-247). The test is considered a model of spatial learning and memory.
# Learning trials were performed twice a day at an interval of 3 hours for 4 days (8 times in total), and probe trials were performed once the day after completion of the learning trials. Each test compound was dissolved in a 0.5% methylcellulose in water and orally administered 1 hour before the first trial on each day of the learning trials and 1 hour before the trial on the day of the probe trials.
# A colorless clear acrylic platform (diameter: about 12 cm, height: about 30 cm) and a gray vinyl chloride circular pool (diameter: about 148 cm, height: about 44 cm), which was filled with water (temperature: 17-18° C.) up to a height of about 32 cm so that the platform was fully immersed in water, were used as the test device. Four quadrants were prepared at the bottom of the pool, and the platform was set at the center of 1 of the 4 quadrants (about 37 cm from the center of the pool). A light bulb was placed near the quadrant with the platform as a spatial cue.
# In learning trials, the animal was put into water and goal latency and swimming distance to reach the platform were measured (measurement time: 90 seconds at the longest) by a video image behavioral analysis device (Etho Vision XT, Noldus Information Technology Inc.). When an animal reached the platform within 90 seconds and stayed on the platform for 30 seconds, it was judged that the animal recognized the position of the platform, and the measurement was finished.
# In probe trials, the platform was removed from the pool. The animal was put into water, and the swimming time in the quadrant where the platform had been located in the learning trials and the frequency of entry into the platform area where the platform had been located in the learning trials were measured by Etho Vision XT.
# Each value was shown as an average and a standard error (n=10). The statistical significance between a control group and a vehicle group was analyzed by the independent t-test. The statistical significance between the vehicle group and each sample group was analyzed by one-way analysis of variance and then by Dunnett's multiple comparison test. The significance level was set to 5% on both sides. […] The analysis was carried out by using SAS system (SAS Institute Japan Ltd.).
# Sequence of mAChR M1 (P11229 whole entry, looked up): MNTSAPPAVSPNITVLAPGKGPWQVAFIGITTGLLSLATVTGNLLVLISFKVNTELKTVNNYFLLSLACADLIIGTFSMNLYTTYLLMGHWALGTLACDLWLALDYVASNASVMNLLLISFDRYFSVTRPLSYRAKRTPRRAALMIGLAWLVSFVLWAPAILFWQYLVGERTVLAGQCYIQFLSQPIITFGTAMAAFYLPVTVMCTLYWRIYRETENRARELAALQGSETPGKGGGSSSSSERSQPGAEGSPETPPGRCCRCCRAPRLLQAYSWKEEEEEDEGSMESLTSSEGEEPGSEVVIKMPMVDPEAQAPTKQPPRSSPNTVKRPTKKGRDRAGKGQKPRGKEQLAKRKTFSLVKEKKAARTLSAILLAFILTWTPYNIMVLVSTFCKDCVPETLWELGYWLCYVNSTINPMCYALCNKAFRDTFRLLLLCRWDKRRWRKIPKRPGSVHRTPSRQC
compound,measurement,setting,value
"O=C(N[C@H]1CCCC[C@@H]1O)c1cn(Cc2ccc(F)cc2)c2cccnc12 [Example 5, 1-(4-Fluorobenzyl)-N-((1S,2S)-2-hydroxycyclohexyl)-1H-pyrrolo[3,2-b]pyridine-3-carboxamide]",pEC50 for positive allosteric modulation,mAChR M1,6.9
same,EC50,mAChR M3,> 10 µM
same,EC50,mAChR M5,> 10 µM
same,Goal latency,"male Crlj: WI rats; Trial 1, 0.1 mg/kg p.o.",[90 ± 0.00] sec.
same,Swimming distance,"male Crlj: WI rats; Trial 1, 0.1 mg/kg p.o.",[2152.96 ± 91.73] cm
same,Goal latency,"male Crlj: WI rats; Trial 1, 0.3 mg/kg p.o.",[90 ± 0.00] sec.
same,Swimming distance,"male Crlj: WI rats; Trial 1, 0.3 mg/kg p.o.",[2400.75 ± 122.49] cm
same,Goal latency,"male Crlj: WI rats; Trial 2, 0.1 mg/kg p.o.",[90 ± 0.00] sec.
same,Swimming distance,"male Crlj: WI rats; Trial 2, 0.1 mg/kg p.o.",[2353.99 ± 145.71] cm
same,Goal latency,"male Crlj: WI rats; Trial 2, 0.3 mg/kg p.o.",[89.47 ± 0.53] sec.
same,Swimming distance,"male Crlj: WI rats; Trial 2, 0.3 mg/kg p.o.",[2533.19 ± 86.87] cm
same,Goal latency,"male Crlj: WI rats; Trial 3, 0.1 mg/kg p.o.",[78.81 ± 8.1] sec.
same,Swimming distance,"male Crlj: WI rats; Trial 3, 0.1 mg/kg p.o.",[1884.79 ± 174.8] cm
same,Goal latency,"male Crlj: WI rats; Trial 3, 0.3 mg/kg p.o.",[75.08 ± 7.99] sec.
same,Swimming distance,"male Crlj: WI rats; Trial 3, 0.3 mg/kg p.o.",[1945.42 ± 189.94] cm
same,Goal latency,"male Crlj: WI rats; Trial 4, 0.1 mg/kg p.o.",[79.59 ± 7.36] sec.
same,Swimming distance,"male Crlj: WI rats; Trial 4, 0.1 mg/kg p.o.",[1822.32 ± 206.29] cm
same,Goal latency,"male Crlj: WI rats; Trial 4, 0.3 mg/kg p.o.",[60.53 ± 12.15]# sec.
same,Swimming distance,"male Crlj: WI rats; Trial 4, 0.3 mg/kg p.o.",[1592.82 ± 308.21] cm
same,Goal latency,"male Crlj: WI rats; Trial 5, 0.1 mg/kg p.o.",[83.06 ± 4.7] sec.
same,Swimming distance,"male Crlj: WI rats; Trial 5, 0.1 mg/kg p.o.",[1918.78 ± 132.12] cm
same,Goal latency,"male Crlj: WI rats; Trial 5, 0.3 mg/kg p.o.",[53.99 ± 10.18]## sec.
same,Swimming distance,"male Crlj: WI rats; Trial 5, 0.3 mg/kg p.o.",[1417.94 ± 229.44]## cm
same,Goal latency,"male Crlj: WI rats; Trial 6, 0.1 mg/kg p.o.",[66.13 ± 12.22] sec.
same,Swimming distance,"male Crlj: WI rats; Trial 6, 0.1 mg/kg p.o.",[1464.97 ± 308.91] cm
same,Goal latency,"male Crlj: WI rats; Trial 6, 0.3 mg/kg p.o.",[33.09 ± 9.78]## sec.
same,Swimming distance,"male Crlj: WI rats; Trial 6, 0.3 mg/kg p.o.",[876.2 ± 203.14]## cm
same,Goal latency,"male Crlj: WI rats; Trial 7, 0.1 mg/kg p.o.",[76.97 ± 8.11] sec.
same,Swimming distance,"male Crlj: WI rats; Trial 7, 0.1 mg/kg p.o.",[1839.16 ± 221.78] cm
same,Goal latency,"male Crlj: WI rats; Trial 7, 0.3 mg/kg p.o.",[50.1 ± 10.02]## sec.
same,Swimming distance,"male Crlj: WI rats; Trial 7, 0.3 mg/kg p.o.",[1329.27 ± 236.21]## cm
same,Goal latency,"male Crlj: WI rats; Trial 8, 0.1 mg/kg p.o.",[67.24 ± 10.13] sec.
same,Swimming distance,"male Crlj: WI rats; Trial 8, 0.1 mg/kg p.o.",[1492.52 ± 260.05] cm
same,Goal latency,"male Crlj: WI rats; Trial 8, 0.3 mg/kg p.o.",[38.02 ± 10.74]## sec.
same,Swimming distance,"male Crlj: WI rats; Trial 8, 0.3 mg/kg p.o.",[1020.57 ± 253.94]## cm
same,Swimming time in 4th quadrant,"male Crlj: WI rats; 0-30 sec., 0.1 mg/kg p.o.",[8.90 ± 1.02]# sec.
same,Swimming time in 4th quadrant,"male Crlj: WI rats; 0-30 sec., 0.3 mg/kg p.o.",[7.19 ± 1.11] sec.
same,Frequency of entry into platform area,male Crlj: WI rats; 0.1 mg/kg p.o.,[0.9 ± 0.3]
same,Frequency of entry into platform area,male Crlj: WI rats; 0.3 mg/kg p.o.,[1.7 ± 0.5]##
same,Swimming time in 4th quadrant,"male Crlj: WI rats; 30-60 sec., 0.1 mg/kg p.o.",[9.41 ± 1.80]# sec.
same,Swimming time in 4th quadrant,"male Crlj: WI rats; 30-60 sec., 0.3 mg/kg p.o.",[8.48 ± 1.25] sec.
same,Swimming time in 4th quadrant,"male Crlj: WI rats; 60-90 sec., 0.1 mg/kg p.o.",[7.74 ± 0.85] sec.
same,Swimming time in 4th quadrant,"male Crlj: WI rats; 60-90 sec., 0.3 mg/kg p.o.",[7.49 ± 1.37] sec.
same,Swimming time in 4th quadrant,"male Crlj: WI rats; Total, 0.1 mg/kg p.o.",[26.05 ± 2.03]## sec.
same,Swimming time in 4th quadrant,"male Crlj: WI rats; Total, 0.3 mg/kg p.o.",[23.16 ± 2.97] sec.
